Paper PMC7949049 (The Journal of Biological Chemistry, 2020)
Entries after “also recorded” stand apart in the source; their conditions may differ. Positions of bridges follow the written chain, without caps; N, C: chain ends. Non-standard residues stand in square brackets, D forms with d. Residues, ends and D or L forms follow the SMILES beside them. *: point of attachment. 5FAM = O=C1OC2(c3ccc(O)cc3Oc3cc(O)ccc32)c2ccc(C(=O)*)cc21; S5 = C=CCCC[C@](C)(N)C(=O)O

Legend:
[1] = Circular dichroism, helicity; type: physicochemical; settings: CD 185-260 nm, 0.2 mg/ml peptide in water, 298 K; CDSSTR method, reference set 3, Dichroweb
Procedure: CD spectra were recorded at 1 nm intervals between 260 and 185 nm using an Aviv Model 410 CD spectrometer with a 1 mm path length quartz cuvette at 298 K. Three scans were recorded for each peptide or protein, the data were averaged, and the buffer background was subtracted. RLIP76 RBDs were measured at 0.2 mg/ml in 10 mM phosphate buffer, pH 7.3, and 150 mM NaF, while peptides were measured at 0.2 mg/ml in water. The helical content of each peptide and RBD was determined using the CDSSTR method with reference Set 3 and DichroWeb ([59], [60], [61]).

[2] = Solubility in aqueous solution (observation); type: physicochemical; settings: qualitative
Cdc42 = biological target: T1, Cdc42 (Homo sapiens, UniProt P60953, Q61L); test: Direct-binding fluorescence polarization, Cdc42; settings: 20 nM FAM-labelled non-solubilized peptide; n ≥ 2; ± standard error from curve fitting; read-out: Kd Cdc42, FP (Table S1)
T1 construct: Cdc42 (pGEX-2T, 1–184, Q61L); GST (cleaved yes); made in house
T1 sequence (P60953 1-184 Q61L, species assumed): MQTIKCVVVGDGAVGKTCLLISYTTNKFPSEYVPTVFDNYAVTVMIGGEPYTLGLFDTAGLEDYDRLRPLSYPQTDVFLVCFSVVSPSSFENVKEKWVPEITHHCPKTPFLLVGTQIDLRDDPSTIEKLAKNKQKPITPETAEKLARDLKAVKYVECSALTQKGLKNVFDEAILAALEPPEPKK
Procedure: (§1) FP experiments were performed on a BMG Labtech Pherastar fluorimeter at 298 K with excitation at 485 nm and emission at 520 nm as described previously ([34]), using 20 nM FAM-labeled peptide. Plates were read after 30 min incubation at room temperature. Data were fitted to a single-site binding model using nonlinear regression analysis in GraphPad prism 8.4 to obtain Kd values and their standard errors.

cells = settings: confocal microscopy of FAM-labeled peptide; cited from earlier work
Excerpt: It has been shown previously that stapled peptides need to form an amphipathic helix in order to enter cells ([52]), and the amphipathicity of our peptide was disrupted by the inclusion of the so ...

RhoA·GMPPNP = biological target: T2, RhoA·GMPPNP (Homo sapiens, UniProt P61586, F25N/Q63L); test: Direct-binding fluorescence polarization, RhoA; settings: 20 nM FAM-labelled non-solubilized peptide; n ≥ 2; ± standard error from curve fitting; read-out: Kd RhoA, FP (Table S1)
T2 construct: RhoA (pGEX-2T, 1–186, F25N/Q63L); GST (cleaved yes); made in house
T2 sequence (P61586 1-186 F25N/Q63L): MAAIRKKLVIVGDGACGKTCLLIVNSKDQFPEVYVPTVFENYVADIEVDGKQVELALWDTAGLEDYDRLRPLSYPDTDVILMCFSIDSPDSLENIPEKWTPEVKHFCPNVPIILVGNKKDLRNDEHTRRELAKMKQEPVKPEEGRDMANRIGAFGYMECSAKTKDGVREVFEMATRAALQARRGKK
Procedure: as §1

CC[C@H](C)[C@H](NC(=O)[C@H](CCCNC(=N)N)NC(=O)[C@H](CCC(N)=O)NC(=O)[C@H](CCC(=O)O)NC(=O)[C@H](CCC(=O)O)NC(=O)[C@H](Cc1c[nH]c2ccccc12)NC(=O)[C@H](CC(C)C)NC(=O)[C@]1(C)CCCC=CCCC[C@](C)(NC(=O)[C@@H](N)CC(C)C)C(=O)N[C@@H](CCCCN)C(=O)N[C@@H](CCC(=O)O)C(=O)N[C@@H](CCC(=O)O)C(=O)N1)C(=O)N[C@@H](CCCCN)C(=O)N[C@H](C(=O)N[C@@H](C)C(=O)N[C@@H](CCC(=O)O)C(=O)N[C@@H](CCCCN)C(=O)N[C@@H](CCCNC(=N)N)C(=O)N[C@@H](CCCCN)C(=O)N[C@@H](CCCCN)C(=O)N[C@@H](CCCNC(=N)N)C(=O)N[C@@H](CCC(=O)O)C(=O)N[C@@H](C)C(N)=O)[C@@H](C)O [wt-sol] (H-L[S5]KEE[S5]LWEEQRIKTAEKRKKREA-NH2; staple 2-6; N-terminus assumed)
Helicity (%) of peptides [1]: 46%

CC[C@H](C)[C@H](NC(=O)[C@H](CCCNC(=N)N)NC(=O)[C@H](CCC(N)=O)NC(=O)[C@@H](NC(=O)[C@H](CCC(=O)O)NC(=O)[C@H](Cc1c[nH]c2ccccc12)NC(=O)[C@H](CC(C)C)NC(=O)[C@]1(C)CCCC=CCCC[C@](C)(NC(=O)[C@H](CC(C)C)NC(=O)c2ccc3c(c2)C(=O)OC32c3ccc(O)cc3Oc3cc(O)ccc32)C(=O)N[C@@H](CCCCN)C(=O)N[C@@H](CCC(=O)O)C(=O)N[C@@H](CCC(=O)O)C(=O)N1)C(C)C)C(=O)N[C@@H](CC(C)C)C(=O)N[C@H](C(=O)N[C@@H](C)C(=O)N[C@@H](CC(C)C)C(=O)N[C@@H](CCCCN)C(=O)N[C@@H](CCCNC(=N)N)C(=O)N[C@@H](CCCCN)C(=O)N[C@@H](CC(C)C)C(=O)N[C@@H](CCCNC(=N)N)C(=O)N[C@@H](CCC(=O)O)C(=O)N[C@@H](C)C(N)=O)[C@@H](C)O [SP1] (5FAM-L[S5]KEE[S5]LWEVQRILTALKRKLREA-NH2; staple 2-6)
solubility [2]: poor solubility; also recorded: poorly soluble
Kd (Cdc42): 13 ± 7.4 µM
cell entry (previous work) (cells): able to enter cells
Kd (RhoA·GMPPNP): 0.0338 ± 0.0054 µM
